Laboratory results reported in patent publication US20240091214A1, “LONAFARNIB FOR USE IN THE TREATMENT OF VIRAL INFECTIONS” (TWINCORE ZENTRUM FÜR EXPERIMENTELLE UND KLINISCHE …, priority 2021, published 2024).
Read-outs that look alike come from different tables or passages of the source.

Experiments:
[1] = cited from earlier work
[2] = tested on: HRSV; assay: HRSV infection of differentiated BCi-NS1.1 air-liquid-interface cultures, viral load by qRT-PCR; format: cell-based, human respiratory syncytial virus (HRSV); settings: differentiated human airway epithelial cells (BCi-NS1.1), HBSS rinsing fluid and harvested cells, different doses and time points (FIG. 7)
From the text: Shown are viral loads measured by qRT-PCR after HRSV infection in differentiated BCi-NS1.1 cells and treatment with lonafanib at different doses. right: viral load in HBSS rinsing fluid at different time points after infection. left: viral load of harvested cells, also at different time points after infection.
Then, the antiviral effect of lonafarnib against HRSV was shown in differentiated human airway epithelial cells. Therefore, BCi NS1.1 cells were differentiated and used in so-called “air-liquid-interface” cultures to form a pseudo-stratified lung epithelium. The cells were then infected with HRSV and treated with lonafarnib at different concentrations. The compounds were added to the medium from the basolateral pole of the cell (“liquid interface”, homologous to the blood stream) as well as administered apically (homologous to local treatment via inhalation). At different time points post infection, the cell surface (“air interface”, apical side of the cell culture, homologous to the lumen of the lung) was rinsed with HBSS to remove released viruses from the cell surface. The viral load in the HBSS rinsing fluid was determined by qRT-PCR. Also, at each time point cells were lysed and the virus load in the cell extract was determined by qRT-PCR. (FIG. 7)

[3] = tested on: HRSV-B virus; assay: HRSV-B infection assay, number of infected cells; format: cell-based; settings: % compared to DMSO control (FIG. 9)
From the text: However, […].

[4] = tested on: Hepatitis Delta Virus (HDV); assay: Production of infectious Hepatitis Delta Virus in transfected Huh7-hNTCP cells; format: cell-based; settings: increasing concentrations (FIG. 8)
Protocol: 16 h later medium was exchanged and the cells were then cultured in absence or presence of 1% DMSO or increasing concentrations of lonafarnib or tipifarnib; (A) 10 days post transfection, translation of the HDV viral genome in the cells was confirmed by immunofluorescence and percentage of positive cells was calculated; (B) production of infectious progeny HDV was assessed by incubating serial dilutions of their supernatants on naïve Huh7-hNTCP, followed by staining for the HD-Ag—dashed lines indicates the detection threshold of the assay.

[5] = tested on: HRSV H01 ON1 isolate; assay: Infection assay with HRSV H01 ON1 isolate, intracellular FACS staining against a virus own protein; format: cell-based, human respiratory syncytial virus (HRSV)
Protocol: Both graphs show data from analysing the viral infection efficiency by intracellular flow cytometry staining against a virus own protein. […] MFI: mean fluorescence intensity
Another infection assay was carried out with the HRSV H01 ON1 isolate. The analysis/quantification of the viral infection efficiency was carried out by intracellular FACS staining against a virus own protein. […] The amount of viral proteins in the infected cells was […] by the administration of lonafarnib.

[6] = tested on: HRSV luciferase reporter virus; assay: HRSV luciferase reporter virus infection assay (first and second round of infection); format: cell-based, human respiratory syncytial virus (HRSV); settings: for IC50: human respiratory syncytial virus, 24 h
From the text: The dose-response relationship of lonafarnib to the HRSV reporter virus is shown on the right. Below are the IC50 and IC90 values of the first round of infection and the second round of infection, respectively, and the 50% cytotoxic concentration of lonafarnib (CC50).
The chemical structure of the farneslytransferase inhibitors lonafarnib and tipifarnib is shown above. The dose-response relationship of these agents against the HRSV luciferase reporter virus is shown below.
Efficiency of HRSV infection-inhibition by lonafarnib was investigated by a series of infection assays. In the first round of infection, the effect of lonafarnib on the virus' cell entry, which includes RNA transcription, translation and replication up to 24 hours after infection, was investigated. In the second round of infection, the cell culture supernatant was harvested and transferred to naive cells at 24 h after primary infection. In these cells, again 24 h later, the infection efficiency was determined using the luciferase reporter. In this way, the efficiency was analyzed over a longer period of time, including the spread of the virus and the re-infection of cells. The IC50 values were determined at 0.02 μM (round 1) and 0.004 μM (round 2). (FIG. 2)
In a further trial, the effect of lonafarnib compared to the farnesyltransferase inhibitor tipifarnib on HRSV-infected cell culture was then analyzed and compared.

[7] = tested on: clinical HRSV isolate HRSV H01 ON1; assay: Plaque reduction test with clinical HRSV isolate; format: cell-based, human respiratory syncytial virus (HRSV); settings: clinical HRSV H01 ON1 isolate (FIG. 4)
Protocol: The respective concentrations of lonafarnib, tipifarnib and DMSO (control; final concentration 1%) administered to the cells are indicated on the respective well.
To confirm the antiviral effect of lonafarnib, an infection assay was performed with the clinical HRSV isolate HRSV H01 ON1. The infection efficiency was assessed in the plaque reduction test, i.e. independently of an indirect reporter gene measurement. […] (FIG. 4)

[8] = animals, formulated in crystalline forms; cited from earlier work
[9] = tested on: HRSV virus population with resistance to a fusion inhibitor (mutations within the F protein); assay: Infection assay with HRSV population resistant to an HRSV fusion inhibitor, intracellular FACS staining; format: cell-based, human respiratory syncytial virus (HRSV); settings: fusion inhibitor adapted virus compared with DMSO adapted virus (FIG. 6)
Protocol: The most significant reduction of infected cells is shown in the DMSO adapted virus population by administration of lonafarnib. Dark grey: DMSO adapted virus; light grey: fusion inhibitor adapted virus.
Further, the efficacy of lonafarnib on HRSV virus population that had previously developed resistance to an HRSV fusion inhibitor was investigated. The effectiveness of HRSV infection (number of infected cells) was determined by intracellular FACS staining. […] The HRSV virus population with resistance to a fusion inhibitor was also less susceptible to inhibition by lonafarnib.

## NC(=O)N1CCC(CC(=O)N2CCC([C@H]3c4ncc(Br)cc4CCc4cc(Cl)cc(Br)c43)CC2)CC1 [lonafarnib]
[1]; acidic or basic conditions
  stability in solution: will hydrolyze
[1]
  water solubility: poorly water soluble
[1]; neutral pH
  stability in solution: stable at neutral pH
[1]; solid state, thermal
  stability in the solid state: thermally stable
[2]
  inhibition of HRSV infection (viral load by qRT-PCR): inhibits HRSV infection
[3]
  inhibition of HRSV-B infection (number of infected cells): selectively and efficiently inhibits the number of infected cells
[4]
  inhibition of Hepatitis Delta infections: equally inhibit Hepatitis Delta infections
[5]; intracellular FACS staining (FIG. 5 left)
  number of infected cells: reduced the number of infected cells in a dose-dependent manner
[5]; intracellular FACS staining (FIG. 5 right)
  amount of viral proteins in the infected cells (MFI): not reduced
[6]; HRSV-infected cell culture, dose-response, comparison of lonafarnib and tipifarnib (FIG. 3)
  suppression of HRSV infection: highly effective
[6]; read-out: IC50, first round of infection
  IC50: 0.02 µM
[6]; read-out: IC50, second round of infection
  IC50: 0.004 µM
[7]
  plaque formation (plaque size and number): reduced plaque size and number in a dose-dependent manner
[8]
  bioavailability: low and variable
[9]
  activity against fusion inhibitor-resistant HRSV population (number of infected cells): reduced activity
